pIC50: −log10 of the molar value. Values after ≈ are worked out from the molar mass of the structure shown.
What was measured:
[1] = Metabolic stability in pooled human liver microsomes; format: in vitro ADME; conditions: for h.mic. FH (fraction escaping hepatic clearance): 1 μM compound, 0.5 mg microsomal protein/mL, 37° C., calculated from halflife, fu=1; for human microsomal metabolic stability (h.mic. FH) compared to the unsubstituted analog (Z=H): incubated with human microsomes
Description: The compounds were incubated (at 1 μM) with characterized, pooled human liver microsomes (0.5 mg microsomal protein/mL incubation) at 37° C. in phosphate buffer (50 mM potassium phosphate, pH 7.4) The incubations were started by the addition of a cofactor (1 mM NADPH (Nicotinamide adenine dinucleotide phosphate in reduced form) and terminated by the addition of acetonitrile (1:1). The incubations were analyzed by LC/MS and a time curve for the disappearance of the parent compound was constructed. Control incubations without microsomes, or with acetonitrile addition before the addition of the cofactor, were used to check for non-enzymatic degradation/disappearance. […] The fraction escaping hepatic clearance, FH, given in %, was calculated from the hepatic clearance according to the following equation: [formula] Thus, the higher the FH, the more metabolically stable the compound. Solubility

[2] = Aqueous solubility in 0.1 M phosphate buffer pH 7.4; format: physicochemical; conditions: for solubility at 24 h: 21 °C, aqueous buffer, thermodynamic from solid, 0.1 M phosphate buffer, pH 7.4, 20 to 22° C., read-out: aq. Solubility
Description: Duplicate of 1-2 mg of the test compound are incubated in 0.1 M phosphate buffer, pH 7.4, in 2 mL glass-vials on a plate bed shaker (IKA®-Schüttler MTS-4, IKA Labortechnik) at 300 rpm at a temperature of 20 to 22° C. for 24 hours. Non-dissolved material is centrifugated down from the saturated solution at 3000 rpm for 2×15 minutes at 22° C. (Multifuge® 3 S-R, Heraeus). The aqueous supernatant is transferred to glass-vials and aliquotes used for quantitative analysis using reversed HPLC with MS confirmation of compound identity. Quantification is performed by the UV-trace of the chromatogram against a calibration curve, 0-200 μM, of the test compound dissolved in DMSO at the wavelength of a positive inflection point of the UV spectrum. The reported values (aq. solubility) are the mean values of duplicate HPLC-analysis of two independent incubations.

[3] = molecular target: T1, human mGluR5d (Homo sapiens, UniProt P41594); assay: FLIPR analysis of [Ca2+]i mobilization, antagonist activity; format: cell-based; conditions: cells expressing human mGluR5d, read-out: IC50 mGluR5
T1 construct: expressed in transfected cells; GHEK cells stably expressing the receptor are named only for the IP3 assay
T1 sequence (P41594 21-942 isoform P41594-3 limits assumed): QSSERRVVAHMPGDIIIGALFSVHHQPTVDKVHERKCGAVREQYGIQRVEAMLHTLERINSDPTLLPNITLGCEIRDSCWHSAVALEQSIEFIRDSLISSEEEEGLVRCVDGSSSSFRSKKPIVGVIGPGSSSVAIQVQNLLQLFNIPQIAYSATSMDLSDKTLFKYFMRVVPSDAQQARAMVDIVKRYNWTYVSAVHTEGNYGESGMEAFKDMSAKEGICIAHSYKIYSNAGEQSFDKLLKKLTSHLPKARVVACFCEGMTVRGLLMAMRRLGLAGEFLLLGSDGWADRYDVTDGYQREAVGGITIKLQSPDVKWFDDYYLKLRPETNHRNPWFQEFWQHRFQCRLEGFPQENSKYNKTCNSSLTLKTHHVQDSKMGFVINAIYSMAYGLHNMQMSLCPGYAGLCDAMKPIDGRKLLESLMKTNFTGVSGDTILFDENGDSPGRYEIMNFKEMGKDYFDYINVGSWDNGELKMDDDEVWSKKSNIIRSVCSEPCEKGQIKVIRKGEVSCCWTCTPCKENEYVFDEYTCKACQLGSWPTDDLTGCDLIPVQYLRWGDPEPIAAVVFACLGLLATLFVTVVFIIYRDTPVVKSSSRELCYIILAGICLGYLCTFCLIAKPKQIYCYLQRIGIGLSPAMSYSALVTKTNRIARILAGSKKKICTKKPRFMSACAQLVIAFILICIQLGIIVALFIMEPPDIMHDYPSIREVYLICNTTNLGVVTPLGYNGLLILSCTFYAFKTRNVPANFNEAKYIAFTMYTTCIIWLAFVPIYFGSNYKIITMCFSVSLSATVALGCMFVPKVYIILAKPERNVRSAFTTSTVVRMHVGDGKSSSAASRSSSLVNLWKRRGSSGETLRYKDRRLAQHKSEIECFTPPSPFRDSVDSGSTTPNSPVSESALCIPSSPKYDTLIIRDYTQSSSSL
Description: FLIPR experiments were done using a laser setting of 0.800 W and a 0.4 second CCD camera shutter speed. Each FLIPR experiment was initiated with 160 μl of buffer present in each well of the cell plate. After each addition of the compound, the fluorescence signal was sampled 50 times at 1 second intervals followed by 3 samples at 5 second intervals. Responses were measured as the peak height of the response within the sample period. EC50 and IC50 determinations were made from data obtained from 8-point concentration response curves (CRC) performed in duplicate. Agonist CRC were generated by scaling all responses to the maximal response observed for the plate. Antagonist block of the agonist challenge was normalized to the average response of the agonist challenge in 14 control wells on the same plate.
Cell cultures in the 96-well plates were loaded with a 4 μM solution of acetoxymethyl ester form of the fluorescent calcium indicator fluo-3 (Molecular Probes, Eugene, Oreg.) in 0.01% pluronic.
Each FLIPR experiment was initiated with 160 μl of buffer present in each well of the cell plate. […] After each addition the fluorescence signal was sampled 50 times at 1 second intervals followed by 3 samples at 5 second intervals. Responses were measured as the peak height of the response within the sample period. […]

SMILES | h.mic. FH (fraction escaping hepatic clearance) [1] [%] | human microsomal metabolic stability (h.mic. FH) compared to the unsubstituted analog (Z=H) [1] | solubility at 24 h [2] [µM] | increase in solubility compared to the corresponding bromo derivative (Z=Br) ([2]; aq. solubility) [fold] | pIC50 [3]
N#Cc1cc(F)cc(-n2nnc(-c3ccc(F)cn3)n2)c1 [3-Fluoro-5-[5-(5-fluoropyridin-2-yl)-2H-tetrazol-2-yl]benzonitrile] | 71 | significantly more stable | 4.3 (≈ 1.22 µg/mL) | 22 | 
N#Cc1cc(F)cc(-n2nnc(-c3ccc(Br)cn3)n2)c1 [3-[5-(5-bromopyridin-2-yl)-2H-tetrazol-2-yl]-5-fluorobenzonitrile] | 92 | significantly higher human metabolic stability | 0.2 (≈ 0.069 µg/mL) |  | 
N#Cc1cc(F)cc(-n2nnc(-c3ccccn3)n2)c1 [3-fluoro-5-(5-pyridin-2-yl-2H-tetrazol-2-yl)benzonitrile] | 10 |  | 43 (≈ 11.4 µg/mL) |  | 7.92
